Assay results from EP4721767A1 (priority 2023, dated 2024).

Legend:
Assay type in all cases: cell-based
[1] = system: KB oral epithelial cancer cells; test: Cell killing activity of camptothecins (CCK-8); settings: killing 4 days
Description: (§1) KB oral epithelial cancer cells (purchased from: ATCC) were cultured in DMEM medium supplemented with 10% FBS; NCI-N87 human gastric cancer cells (purchased from: ATCC) were cultured in RPMI1640 medium supplemented with 10% FBS; HT29 human colon cancer cells (purchased from: ATCC) were cultured in RPMI1640 medium supplemented with 10% FBS; and BxPC-3 human pancreatic adenocarcinoma cells (purchased from: ATCC) were cultured in RPMI1640 medium supplemented with 10% FBS.
(§2) Using corresponding media described above and in cell plates, the density of KB cells was adjusted to 2×10^4/mL; the density of NCI-N87 cells was adjusted to 5×10^4/mL; the density of HT29 cells was adjusted to 5×10^4/mL, and the cells were plated onto 96-well transparent flat bottom plates, at 100 µL/well, and cultured overnight; and the density of BxPC-3 cells was adjusted to 5×10^4/mL.
(§3) Samples to be detected were diluted to 20 µM with corresponding media, then 5-fold gradient dilution was performed, and 9 concentrations were obtained. A well having cells but with no any sample added was set as the well showing maximum cell growth; and a well having no cells was set as the well of medium background. The diluted samples were added into the cell plates, at 100 µL/well, which were then incubated in a CO2 incubator for 96 hours. After the incubation, CCK-8 (purchased from: DOJINDO LABORATORIES) prepared beforehand was added into the plates, at 20 µL/well, and after further 3 hours of incubation in the CO2 incubator, OD values at 450 nm were read on a microplate reader.
(§4) Data obtained was fitted to a four-parameter curve using software Prism7, and equation for calculating maximum killing is: maximum killing (%) = 1 - (OD450 value of the well showing maximum killing - OD450 value of the well of medium background) / (OD450 value of the well showing maximum cell growth - OD450 value of the cell of medium background) × 100%. Table 6. Results of comparative study on the activity of camptothecins

[2] = system: HT29 human colon cancer cells; test: Cell killing activity of camptothecins (CCK-8); settings: HT29, killing 4 days
Description: as §1, §2, §3, §4

[3] = system: MDA-MB-468; test: Proliferation-inhibiting effect on tumor cells (SRB / MTT); settings: Homo sapiens; MDA-MB-468, 144 hours; read-out: IC50 (nM, mean ± SD)
Description: (§5) For cells growing by adherence, SRB assay was used to detect effect of antibody-drug conjugates, antibodies, or camptothecins on the proliferation of tumor cells in vitro cultured. A certain number of cells in exponential growth phase were inoculated in 96-well cell culture plates, and when the cells grew by adherence overnight, antibody drug conjugates, antibodies, or camptothecins of different concentrations were added into the cells. 144 hours of incubation later, the cells were fixed with trichloroacetic acid, and then stained with SRB (prepared in 1% glacial acetic acid at a concentration of 4 mg/mL). 10 mM Tris solution was added into each well to solubilize the bound SRB. OD values at 510 nm were read on a microplate reader. [formula]
(§6) For cells growing in suspension, MTT assay was used to detect effect of antibody-drug conjugates, antibodies, or camptothecins on the proliferation of tumor cells in vitro cultured. A certain number of cells in exponential growth phase were inoculated in 96-well cell culture plates, and when the cells grew in suspension overnight, antibody-drug conjugates, antibodies, or camptothecins of different concentrations were added into the cells. 144 hours of incubation later, MTT was added to each well of the plates, and the incubation was continued for 4 hours at 37 °C in a 5% CO2 saturated humidity incubator. Next, 100 µL of SDS-isobutanol-HCl solution was added into each well of the plates, and OD values at 570 nm and 690 nm were read on a microplate reader.
(§7) Half maximal inhibitory concentration (IC50) was calculated from the inhibition (%) at those different concentrations using the software Graphpad Prism 8.0. The experiment was repeated once and the data was expressed as mean ± SD, and a plot of log(concentration) versus inhibition was generated. Table 10. Results of the proliferation-inhibiting effect of ADCs targeting B7-H3 on different tumor cells

[4] = system: BxPC-3; test: as above; settings: Homo sapiens; BxPC-3, 144 hours; read-out: IC50 (nM, mean ± SD)
Description: as §5, §6, §7

[5] = system: NCI-N87; test: as above; settings: Homo sapiens; NCI-N87, 144 hours; read-out: IC50 (nM, mean ± SD)
Description: as §5, §6, §7

[6] = system: MDA-MB-231; test: as above; settings: Homo sapiens; MDA-MB-231, 144 hours; read-out: IC50 (nM, mean ± SD)
Description: as §5, §6, §7

[7] = system: Calu-6; test: as above; settings: Homo sapiens; Calu-6, 144 hours; read-out: IC50 (nM, mean ± SD)
Description: as §5, §6, §7

[8] = system: SW626; test: as above; settings: Homo sapiens; SW626, 144 hours; read-out: IC50 (nM, mean ± SD)
Description: as §5, §6, §7

[9] = system: ES-2; test: as above; settings: Homo sapiens; ES-2, 144 hours; read-out: IC50 (nM, mean ± SD)
Description: as §5, §6, §7

[10] = system: PANC 05.04; test: as above; settings: Homo sapiens; PANC 05.04, 144 hours; read-out: IC50 (nM, mean ± SD)
Description: as §5, §6, §7

[11] = system: Calu-3; test: as above; settings: Homo sapiens; Calu-3, 144 hours; read-out: IC50 (nM, mean ± SD)
Description: as §5, §6, §7

[12] = system: HT-29; test: as above; settings: Homo sapiens; HT-29, 144 hours; read-out: IC50 (nM, mean ± SD)
Description: as §5, §6, §7

[13] = system: SK-OV-3; test: as above; settings: Homo sapiens; SK-OV-3, 144 hours; read-out: IC50 (nM, mean ± SD)
Description: as §5, §6, §7

[14] = system: MC38/B7H3; test: as above; settings: Mus musculus, MC-38; MC38/B7H3, 144 hours; read-out: IC50 (nM, mean ± SD)
Description: as §5, §6, §7

[15] = system: HCT-116; test: as above; settings: Homo sapiens; HCT-116, 144 hours; read-out: IC50 (nM, mean ± SD)
Description: as §5, §6, §7

[16] = system: U-87 MG; test: as above; settings: Homo sapiens, 144 hours, read-out: IC50 (nM, mean ± SD)
Description: as §5, §6, §7

[17] = system: PANC-1; test: as above; settings: Homo sapiens; PANC-1, 144 hours; read-out: IC50 (nM, mean ± SD)
Description: as §5, §6, §7

[18] = system: MC38; test: as above; settings: Mus musculus, MC-38; MC38, 144 hours; read-out: IC50 (nM, mean ± SD)
Description: as §5, §6, §7

CC[C@@]1(O)C(=O)OCc2c1cc1n(c2=O)Cc2c-1nc1ccc(N)c3c1c2C(F)(F)CC3 [Compound 3] was tested, and the EC50 ([1]; 96 h) was 7.47 nM, the “Maximum Killing (%)” value [1] was 95.6% and the “Maximum Killing (%)” value [2] was 90.6%. The EC50 ([2]; Homo sapiens, HT-29, 96 h) was 6.04 nM, the IC50 [3] was 0.21 ± 0.11 nM and the IC50 [4] was 0.26 ± 0.09 nM. It also gave an IC50 [5] of 1.26 ± 0.13 nM, an IC50 [6] of 0.59 ± 0.03 nM and an IC50 [7] of 0.25 ± 0.06 nM. For the same molecule, the IC50 [8] was 3.08 ± 0.63 nM, the IC50 [9] was 0.21 ± 0.08 nM and the IC50 [10] was 0.35 ± 0.19 nM. It also gave an IC50 [11] of 0.44 ± 0.1 nM, an IC50 [12] of 0.62 nM and an IC50 [13] of 1.05 ± 0.48 nM. For the same molecule, the IC50 [14] was 4.67 ± 1.98 nM, the IC50 [15] was 0.3 nM and the IC50 [16] was 3.72 ± 0.01 nM. It also gave an IC50 [17] of 0.82 ± 0.16 nM and an IC50 [18] of 3.27 ± 0.75 nM.
